# Tested on: Plasmodium falciparum
# Test: GSK_TCMDC: Inhibition of Plasmodium falciparum 3D7 in whole erythrocytes, using parasite LDH activity as an index of growth.
# Type: functional, organism-based
# Conditions: Plasmodium falciparum, 3D7
row,Structure (SMILES),XC50 [nM]
1,O=C(/C=C/c1ccc(Cl)cc1)NCCCCCN1CCC(c2c[nH]c3ccccc23)CC1,838
2,O=C(/C=C/c1ccc(Cl)c(Cl)c1)NCCCCCN1CCC(C(=O)Nc2ccc3c(c2)OCO3)CC1,839
3,CC(C)c1sc(N2CCCCC2)nc1C(=O)Nc1ccc(F)cc1C(F)(F)F,239
4,COc1ccc(CCNCCCCCCNCCc2ccccc2Cl)cc1OC,657
5,O=C(Nc1cccc(OC2CCN(Cc3ccccc3)CC2)c1)c1ccc([N+](=O)[O-])cc1,661
6,O=C(NCCCCN1CCC(c2ccc3c(c2OCc2ccccn2)CCCC3)CC1)c1ccc(NC(=O)c2ccc(Cl)cc2)cc1,803
7,CCCCSc1nc2c(c(=O)n1Cc1ccco1)C1(CCCCC1)Cc1ccccc1-2,958
8,CCN(CC)CCCCOc1ccc2c(c1)C(=O)c1cc(OCCCCN(CC)CC)ccc1-2,759
9,O=S1(=O)NC2(CCN(CCc3ccc(Cl)cc3)CC2)Nc2cc(F)cc(F)c21,1460
10,CS(=O)(=O)c1ccc(-c2cc(C(F)(F)F)nc(N[C@@H]3CCCC[C@H]3OCc3ccccc3)n2)cc1,60.4
11,O=C(/C=C/c1ccc([N+](=O)[O-])cc1)N1CCC(NS(=O)(=O)c2ccc(F)cc2)CC1,824
12,O=C(Nc1ccc(-c2nc3ccccc3[nH]2)cc1)c1cccc(S(=O)(=O)N2CCOCC2)c1,902
13,CC1CCc2sc(-c3nnc(SC(C)C(=O)N4CCCC4)o3)cc2C1 (configuration not stated),878
14,NC1=NC(c2ccccc2)(c2ccccc2)C(=O)N1Cc1ccc(-c2ccncc2)cc1,772
15,COc1ccc2nc3cc(Cl)ccc3c(Nc3ccc(Oc4ccc(Nc5c6ccc(Cl)cc6nc6ccc(OC)cc56)cc4)cc3)c2c1,859
16,Cc1cc2nc(-c3ccc(C(=O)NCc4cccc(C(F)(F)F)c4)cc3)[nH]c2cc1C,807
17,COc1ccc(CNCc2ccsc2)cc1-c1ccc(S(=O)(=O)NCCN2CCCC2)c(C)c1,898
18,COc1ccc(NC(=O)NC2CCN(CCCOc3ccnc4cc(Cl)ccc34)C2)cc1OC (configuration not stated),792
19,CC(C)NCc1cccc(-c2ccc(-c3nc4cc(C(F)(F)F)ccc4[nH]3)cc2)c1,193
20,O=C(Nc1ccc(-c2nc3ccc(NC(=O)c4ccc(Br)cc4)cc3[nH]2)cc1)c1ccc(Br)cc1,786
21,CS(=O)(=O)NCCCNCc1cccc(-c2cccc(-c3nc4cc(C(F)(F)F)ccc4[nH]3)c2)c1,467
22,Cc1ccc(C(=O)Nc2ccc(F)c(F)c2F)cc1S(=O)(=O)N1CCCCC1,763
23,CC(C)S(=O)(=O)N1CCN(Cc2ccc3c(c2)nc(NC(=O)c2ccsc2)n3C[C@H](O)c2ccccc2)CC1,271
24,NS(=O)(=O)NCCCN1CCN(c2ccccc2)CC1,977
25,CCn1c(-c2nonc2N)nc2c(-c3cccc(NC(=O)Nc4cccc(Cl)c4)c3)ncc(OCCCN)c21,941

row,Structure (SMILES),XC50 [nM]
1,CCN(CC)CCCNc1nccc(N2CCc3ncnc(Nc4ccc(OCc5cccc(F)c5)c(Cl)c4)c3C2)n1,111
2,COc1ccc(CCNCCCCCNCCCc2ccc(Cl)cc2)cc1OC,808
3,CC[C@H]1CN2CC[C@@H]1C[C@H]2[C@H](O)c1ccnc2ccc(OC)cc12,225
4,Cc1cc(C(=O)Nc2ccc3c(c2)CCN3C2CCN(Cc3ccc(O)cc3)C2)no1 (configuration not stated),774
5,Cc1cc(N[C@@H](CC(C)C)C(=O)NCc2cccs2)nc(NCCc2ccc(F)cc2)n1,800
6,CCc1ccc(NC(=O)c2cccc(CN3CCCN(Cc4cccc(O)c4)CC3)c2)cc1,894
7,Cc1nnsc1C(=O)Nc1cccc(-c2ccc(-c3nc4cc(F)ccc4[nH]3)s2)c1,889
8,COc1ccc2c(c1)CC(NCc1ccc(-c3ccc4nc[nH]c4c3)cc1)C2 (configuration not stated),880
9,Fc1ccc(CNc2ccc3ncc(-c4cccnc4)n3n2)cc1,928
10,COc1ccc2nccc(N3CCC(O)(CCNCc4ccc5c(n4)NC(=O)CO5)CC3)c2n1,819
11,COc1cc2c(OC)cccc2cc1CNCCCCCCNCc1cc2cccc(OC)c2cc1OC,823
12,COC(=O)CCn1c(C2CCN(CC3CCC(NC(=O)/C=C/c4ccc(Cl)c(Cl)c4)CC3)CC2)nc2ccccc21 (configuration not stated),951
13,CN1CCN(c2ccnc3ccc(NC(=O)Nc4cccc5c(C#N)cccc45)cc23)CC1,1050
14,O=C(c1ccccc1)N1CCC(CN2CCOC(c3ccccc3)(c3ccccc3)C2)CC1,497
15,O=C(C=Cc1ccc(Cl)c(Cl)c1)NCCCCCN1CCCC(CCCNC(=O)/C=C/c2ccccc2)C1 (configuration not stated),593
16,C[C@H](N[C@H]1CCCc2c1[nH]c1ccc(Br)cc21)c1ccccc1,222
17,Oc1ccc(Cc2cc(Oc3c(I)cc(CCc4ncc[nH]4)cc3I)ccc2O)cc1,712
18,O=C(Nc1ccc2c(c1)OCO2)NC1CCN(c2ccnc(Nc3ccc(F)cc3)n2)C1 (configuration not stated),743
19,Cc1ccc(C(=O)Nc2ccc(Cl)c(N3CCN(CCc4ccccc4)CC3)c2)cc1,926
20,N#Cc1ccc(CN2CCC(Oc3ccc(NC(=O)c4ccco4)cc3Cl)C2)cc1 (configuration not stated),331
21,COc1ccc2nccc([C@@H](O)CN3CCC(NCc4cc5ccccn5n4)CC3)c2c1,1570
22,O=C(NC1CCN(Cc2ccccc2O)C1)c1ccc(Cl)c(Cl)c1 (configuration not stated),894
23,Cc1ccc(NC(=O)c2ccc(NCCCN3CC(C)CC(C)C3)c([N+](=O)[O-])c2)cc1F (configuration not stated),711
24,COc1ccc(CCNc2nc(N)c3cc(OC)c(OC)cc3n2)cc1,1120
25,Fc1ccc(C2N=C(SCCSC3=NC(c4ccc(F)cc4)C(c4ccc(F)cc4)N3)NC2c2ccc(F)cc2)cc1 (configuration not stated),912

row,Structure (SMILES),XC50 [nM]
1,CC(=O)Nc1ccc(CN2CCc3ccc(NS(=O)(=O)c4cccc(OCc5ccc(Cl)cc5)c4)cc3CC2)s1,906
2,COc1cc2ccccc2c(CON2C(=N)N=C(N)NC2(C)C)c1OC,46.4
3,CCCCCCN1CCC(NCc2cccc(C#N)c2)CC1,778
4,COc1ccc2nccc([C@@H](O)CN3CCC(NCc4ccc5c(c4)NC(=O)C(C)(C)O5)CC3)c2c1,402
5,CCCCCN1CCCC1CNS(=O)(=O)c1ccc(C(=O)Nc2cccc(C(F)(F)F)c2)cc1 (configuration not stated),1060
6,COc1ccc(Nc2ncc3c(-c4cccc(NC(=O)Cc5cccc(F)c5)c4)c[nH]c3n2)cc1OC,567
7,CN(C)c1ccc(C=Cc2ccc3ccccc3n2)c(Cl)c1,436
8,Cc1cccc2nc(-c3cccc(-c4ccc(NC(=O)CC5NC(=O)c6ccccc65)cc4)c3)[nH]c12 (configuration not stated),289
9,CNCC(C)(C)c1nc(-c2ccc(Cl)c(O)c2)c(-c2ccncc2)[nH]1,736
10,CC(C)n1ncc2c(C(=O)Nc3ccc(C#N)c(Cl)c3)cc(C3CC3)nc21,962
11,O=C(Nc1ccc(F)cc1)c1nc2ccccc2nc1Cl,1230
12,CC(C)c1ccc(O)cc1Nc1ccnc2ccc(C(F)(F)F)cc12,675
13,CCCn1c(Sc2ccc(C#N)c([N+](=O)[O-])c2)nnc1-c1ccc(OC)cc1,865
14,C=CCOC(=O)N1CCC(CNCc2ccc(-c3cccc(-c4nc5cc(F)ccc5[nH]4)c3)cc2)C1 (configuration not stated),140
15,O=C(CC1CCCC1)N(CC1CCN(Cc2ccc(C(F)(F)F)cc2)CC1)c1ccc(N2CCOCC2)c(F)c1,432
16,COc1cccc(C(=O)OC2=C3CCC(=O)C3(C)CCC2=O)c1 (configuration not stated),77.9
17,CN(C)c1ccc(NC(=O)Nc2ccnc3ccc(Br)cc23)cc1,872
18,CCc1cn2c3c(cc(C(=O)N[C@@H](Cc4cccc(Cl)c4)[C@H](O)CNC4CC4)cc13)N(C)S(=O)(=O)CC2,145
19,COc1ccc2ccc(F)c(CC(=O)N3CCOC(CNCc4cccc(-c5ccc(F)cc5)n4)C3)c2n1 (configuration not stated),1010
20,CCCN1CCN(c2cc(S(=O)(=O)Nc3ccc(C(=O)NCc4cccc(C(F)(F)F)c4)cc3)ccc2OC)CC1,1010
21,O=c1cc(NCCCNCc2cccc3c2OC(F)(F)O3)[nH]c2ccccc12,947
22,NC(=O)C1CCN(Cc2ccc(-c3ccc(-c4nc5cc(C(F)(F)F)ccc5[nH]4)cc3)cc2)CC1,680
23,C=CCN(c1ccc(OC)cc1)S(=O)(=O)c1ccc(Cl)c(C(=O)Nc2cccc(C#N)c2)c1,577
24,Cc1c(Cl)ccc2c(C(=O)Nc3ccncc3)cc(-c3cccnc3)nc12,777
25,CCNc1cc(C(=O)N[C@@H](Cc2ccccc2)[C@H](O)CNC2CCC(C(C)(C)C)CC2)cc(N2CCCC2=O)c1 (some centres not stated),444

row,Structure (SMILES),XC50 [nM]
1,Cc1ccc(CCC(C)NCC(O)c2cccc(C(F)(F)F)c2)cc1 (configuration not stated),561
2,Cc1ccc(N2C(N)=NC(N)=NC2c2ccccc2)cc1 (configuration not stated),56.6
3,Cn1nc(C(F)(F)F)c(-c2ccc(F)cc2)c1NC(=O)Nc1ccc(F)cc1,754
4,Cc1cc(=NN=Cc2ccc(F)cc2)c2cc(F)ccc2[nH]1,644
5,CCN1CCCC(Nc2ccnc3cc4ccccc4cc23)C1 (configuration not stated),104
6,CCN(CC)Cc1cccc(-c2cc3c(-c4ccc(C(=O)O)c(C(C)C)c4)ccnc3[nH]2)c1OC,323
7,CCN(CCNC(=O)Cn1c(C)cc2cc([N+](=O)[O-])ccc21)c1cccc(C)c1,1010
8,Fc1ccc(Nc2nnc(CNC3CCN(Cc4ccc(Cl)c(Cl)c4)CC3)[nH]2)cc1,1380
9,CC(C)(C)c1ccc(NC(=O)c2cccc(CN3CCCN(Cc4cccc(O)c4)CC3)c2)cc1,552
10,O=S1(=O)C=C(c2ccccc2)CC1,205
11,O=c1cc(NCCCN(Cc2ccccc2)Cc2ccccc2)[nH]c2ccccc12,577
12,O=C(NCc1ccccc1[S+]([O-])c1ccccc1CO)C(F)(F)F (configuration not stated),184
13,COC(=O)c1ccccc1COc1ccc(CC2(NC(=O)[C@H](Nc3ccc(C#N)c4ccccc34)C(C)(C)C)CCCC2)cc1,856
14,CCc1cn(CCS(C)(=O)=O)c2ccc(C(=O)N[C@@H](Cc3ccccc3)[C@H](O)CNC(C)(C)CCCC(C)C)cc12,877
15,CN(C)CCCOc1ccc(CCNCc2cccc(Oc3ccc(Cl)cc3)c2)cc1,887
16,CC(C)CNCc1ccc(-c2cccc(CNc3ccc4ncccc4c3)c2)cc1,913
17,COc1cccc(CN2CCN(C(c3ccccc3)c3ccccc3)CC2)c1O,781
18,Cn1cncc1C(=O)Nc1cccc(-c2ccc(-c3nc4cc(F)ccc4[nH]3)cc2)c1,735
19,COc1ccc2nccc(NC(=O)C3CCC(NCc4ccc5c(c4)NC(=O)CS5)CC3)c2c1 (configuration not stated),586
20,CN(CCCc1c[nH]c2ccccc12)CC1CCN(C(=O)/C=C/c2ccc(Cl)c(Cl)c2)CC1,747
21,COc1ccc(CCNc2nc(SCc3ccccc3Cl)nc3ccccc23)cc1OC,943
22,O=C(Nc1ccccc1N1CCOCC1)c1ncoc1-c1ccccc1C(F)(F)F,1060

# Reference: ChEMBL document CHEMBL1157539, “Thousands of chemical starting points for antimalarial lead identification” (Nature, 2010)
